Molecular target: T1, Nuclear receptor ROR-gamma (Homo sapiens, UniProt P51449)
T1 sequence (P51449 whole entry): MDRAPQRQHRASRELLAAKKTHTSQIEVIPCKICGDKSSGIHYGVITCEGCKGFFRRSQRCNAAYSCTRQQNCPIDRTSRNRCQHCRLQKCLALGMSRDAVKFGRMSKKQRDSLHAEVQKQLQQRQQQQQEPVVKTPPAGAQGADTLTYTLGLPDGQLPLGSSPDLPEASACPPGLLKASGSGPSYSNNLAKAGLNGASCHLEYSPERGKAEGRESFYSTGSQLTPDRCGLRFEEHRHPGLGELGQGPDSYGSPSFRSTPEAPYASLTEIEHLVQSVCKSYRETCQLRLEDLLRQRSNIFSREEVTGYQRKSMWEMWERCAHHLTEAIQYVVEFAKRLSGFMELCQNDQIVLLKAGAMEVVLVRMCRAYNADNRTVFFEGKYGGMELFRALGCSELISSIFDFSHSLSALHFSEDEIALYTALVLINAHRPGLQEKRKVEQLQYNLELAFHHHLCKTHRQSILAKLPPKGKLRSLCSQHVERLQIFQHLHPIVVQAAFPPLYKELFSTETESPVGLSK
Test: Binding Assay
Method: Compounds of the present invention were tested for ability to bind to RORγ in a cell-free competition assay with commercially available radio-ligand (RL), 25-hydroxy [26,27-3H] cholesterol (PerkinElmer, Cat. # NET674250UC), for a ligand binding site on a recombinant RORγ Ligand Binding Domain (LBD) protein expressed as a 6×His-Glutathione-S-Transferase (GST) fusion ( 6×His disclosed as SEQ ID NO: 2). The assay was performed in 96-well SPA plates (PerkinElmer, Cat. #1450-401) in 50 mM HEPES buffer, pH 7.4, containing 150 mM NaCl, 5 mM MgCl2, 10% (v/v) glycerol, 2 mM CHAPS, 0.5 mM β-octylglucopyranoside and 5 mM DTT. Tested compounds were dissolved in DMSO, and semi-log (3.162×) serial dilutions of the compounds were prepared in the same solvent. Two μL of the DMSO solutions were mixed with 28 μL of 8.6 nM 25-hydroxy [26,27-3H] cholesterol and 50 μL of 24 nM RORγ LBD. […] SPA signal for tritium beta radiation was registered on PerkinElmer Microbeta plate reader. Percent inhibition values were calculated based on the high signal obtained with DMSO control and the low signal observed with 10 μM standard RORγ inverse agonist T0901317 (SigmaAldrich, Cat. # T2320). The percent inhibition vs. concentration data were fit into a four-parameter model, and […] values were calculated from the fit as the concentrations corresponding to the inflection points on the dose-response curves.

CCS(=O)(=O)c1ccc(CC(=O)Nc2nc3c(s2)CN(CC2CC[C@@H](C(F)(F)F)N(C)C2)[C@H]3C(C)C)cc1 (stereo partly specified) [US9868748, I-A30]
Ki: < 100 nM

— BindingDB's records for patent US9868748 (Vitae Pharmaceuticals, 2018)
